Laboratory results from publication PMC6572064, “Discovery of 2-(1-(3-(4-Chloroxyphenyl)-3-oxo- propyl)pyrrolidine-3-yl)-1H-benzo[d]imidazole-4-carboxamide: A Potent Poly(ADP-ribose) Polymerase (PARP) Inhibitor for Treatment of Cancer” (Molecules, 2019).
Read-outs that look alike come from different tables or passages of the source.

Tests used:
[1] = target: T1, PARP-1 (Homo sapiens, UniProt P09874); experiment: PARP-1 inhibition assay (PARP-1 Chemiluminescent Assay Kit, BPS Bioscience); type: biochemical; details: for inhibition at 0.01 µM: 10 nM compound
T1 construct: purchased BPS Bioscience 80569
Protocol: (§1) The PARP-1 and PARP-2 inhibition assays were performed in outsourcing, by a CRO company, Shanghai Medicilon Inc. (Shanghai, China). […] Briefly, PARP-1 or PARP-2 biotinylated substrate was incubated with compounds or solvent control at varying concentrations and an assay buffer containing the PARP-1 or PARP-2 enzyme.

[2] = target: T2, PARP-2 (Homo sapiens, UniProt Q9UGN5); experiment: PARP-2 inhibition assay (PARP-2 Chemiluminescent Assay Kit, BPS Bioscience); type: biochemical; details: for inhibition at 0.01 µM: 10 nM compound
T2 construct: purchased BPS Bioscience 80552
Protocol: as §1

[3] = system: MDA-MB-436 (a BRCA-1-mutated breast cancer cell line); experiment: Cell proliferation assay, three-day, CellTiter-Glo, MDA-MB-436; type: cell-based; details: for inhibition at 0.00508 µM / inhibition at 0.0152 µM / inhibition at 0.0457 µM / inhibition at 0.41 µM / inhibition at 1.23 µM / inhibition at 3.7 µM / inhibition at 11.11 µM / inhibition at 33.33 µM / inhibition at 100 µM / IC50: Homo sapiens; for inhibition at 0.00508 µM: MDA-MB-436, MDA-MB-436, Conc. 0.00508 uM; for inhibition at 0.0152 µM: MDA-MB-436, MDA-MB-436, Conc. 0.0152 uM; for inhibition at 0.0457 µM: MDA-MB-436, MDA-MB-436, Conc. 0.0457 uM; for inhibition at 0.41 µM: MDA-MB-436, MDA-MB-436, Conc. 0.41 uM; for inhibition at 1.23 µM: MDA-MB-436, MDA-MB-436, Conc. 1.23 uM; for inhibition at 3.7 µM: MDA-MB-436, MDA-MB-436, Conc. 3.70 uM; for inhibition at 11.11 µM: MDA-MB-436, MDA-MB-436, Conc. 11.11 uM; for inhibition at 33.33 µM: MDA-MB-436, MDA-MB-436, Conc. 33.33 uM; for inhibition at 100 µM: MDA-MB-436, MDA-MB-436, Conc. 100.00 uM
How it was run: (§2)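 Cells seeded overnight in 384-well plates, then exposed to compounds (DMSO stock diluted in medium) for 72 h at 37 °C, 5% CO2. Viability read as CellTiter-Glo luminescence after 60 min at room temperature.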

[4] = system: CAPAN-1 (a BRCA-2-mutated pancreatic cancer cell line); experiment: Cell proliferation assay, three-day, CellTiter-Glo, CAPAN-1; type: cell-based; details: for IC50 / inhibition at 0.00508 µM / inhibition at 0.0152 µM / inhibition at 0.0457 µM / inhibition at […] / inhibition at 0.41 µM / inhibition at 1.23 µM / inhibition at 3.7 µM / inhibition at 11.11 µM / inhibition at 33.33 µM / inhibition at 100 µM: Homo sapiens; for inhibition at 0.00508 µM: CAPAN-1, 0.00508 uM; for inhibition at 0.0152 µM: CAPAN-1, 0.0152 uM; for inhibition at 0.0457 µM: CAPAN-1, 0.0457 uM; for inhibition at […]: CAPAN-1, 0.14 uM; for inhibition at 0.41 µM: CAPAN-1, 0.41 uM; for inhibition at 1.23 µM: CAPAN-1, 1.23 uM; for inhibition at 3.7 µM: CAPAN-1, 3.70 uM; for inhibition at 11.11 µM: CAPAN-1, 11.11 uM; for inhibition at 33.33 µM: CAPAN-1, 33.33 uM; for inhibition at 100 µM: CAPAN-1, 100.00 uM
How it was run: as §2

T2 sequence (Q9UGN5 whole entry): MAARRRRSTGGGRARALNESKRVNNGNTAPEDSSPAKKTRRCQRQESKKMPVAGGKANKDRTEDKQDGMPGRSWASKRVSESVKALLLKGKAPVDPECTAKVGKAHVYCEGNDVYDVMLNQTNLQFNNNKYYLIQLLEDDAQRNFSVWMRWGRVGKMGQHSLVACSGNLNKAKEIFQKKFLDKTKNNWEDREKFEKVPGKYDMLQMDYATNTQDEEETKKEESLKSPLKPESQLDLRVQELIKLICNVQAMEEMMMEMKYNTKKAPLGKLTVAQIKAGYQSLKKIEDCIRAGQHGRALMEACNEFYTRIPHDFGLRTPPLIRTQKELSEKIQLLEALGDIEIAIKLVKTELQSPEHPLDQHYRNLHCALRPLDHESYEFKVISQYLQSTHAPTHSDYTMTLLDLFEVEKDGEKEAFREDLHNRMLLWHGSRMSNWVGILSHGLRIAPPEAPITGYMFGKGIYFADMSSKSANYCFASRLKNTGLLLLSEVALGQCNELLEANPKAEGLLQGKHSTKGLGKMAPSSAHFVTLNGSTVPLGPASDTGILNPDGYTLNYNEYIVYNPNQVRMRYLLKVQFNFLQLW
T1 sequence (P09874 whole entry): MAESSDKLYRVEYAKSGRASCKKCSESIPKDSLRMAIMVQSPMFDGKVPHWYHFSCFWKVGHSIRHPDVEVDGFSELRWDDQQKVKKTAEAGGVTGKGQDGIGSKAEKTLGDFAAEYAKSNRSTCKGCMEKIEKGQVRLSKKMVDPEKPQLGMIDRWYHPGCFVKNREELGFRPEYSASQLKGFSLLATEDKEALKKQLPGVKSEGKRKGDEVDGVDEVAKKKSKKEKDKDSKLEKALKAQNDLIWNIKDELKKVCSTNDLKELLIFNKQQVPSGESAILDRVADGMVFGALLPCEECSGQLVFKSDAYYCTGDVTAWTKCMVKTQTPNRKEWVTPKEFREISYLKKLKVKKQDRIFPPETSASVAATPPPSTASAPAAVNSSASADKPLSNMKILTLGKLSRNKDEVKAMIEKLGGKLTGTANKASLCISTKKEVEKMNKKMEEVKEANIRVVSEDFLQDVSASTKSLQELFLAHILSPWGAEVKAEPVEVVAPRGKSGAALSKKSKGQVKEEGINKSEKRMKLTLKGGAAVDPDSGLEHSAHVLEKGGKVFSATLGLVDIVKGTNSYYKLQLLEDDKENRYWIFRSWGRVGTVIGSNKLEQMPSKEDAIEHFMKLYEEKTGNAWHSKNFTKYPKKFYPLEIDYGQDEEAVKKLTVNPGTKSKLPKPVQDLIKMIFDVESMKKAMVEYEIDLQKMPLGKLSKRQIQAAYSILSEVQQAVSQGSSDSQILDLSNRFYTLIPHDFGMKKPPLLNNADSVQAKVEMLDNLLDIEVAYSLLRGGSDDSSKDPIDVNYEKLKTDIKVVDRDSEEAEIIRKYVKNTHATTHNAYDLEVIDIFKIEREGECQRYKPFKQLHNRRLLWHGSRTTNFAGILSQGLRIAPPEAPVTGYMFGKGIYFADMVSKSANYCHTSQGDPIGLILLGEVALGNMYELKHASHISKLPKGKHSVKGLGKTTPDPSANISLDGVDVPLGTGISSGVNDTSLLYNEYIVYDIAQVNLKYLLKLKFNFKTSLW

NC(=O)c1cccc2[nH]c(C3CCN(CCCC(=O)c4ccccc4)C3)nc12 (centres unmarked) [Compound 5cc, 2-(1-(4-Oxo-4-phenylbutyl)pyrrolidin-3-yl)-1H-benzo[d]imidazole-4-carboxamide]
inhibition at 0.01 µM ([1]; supplement sheet, read-out: 10 nM inhibition% PAPR-1): 42.8% | inhibition at 0.01 µM ([1]; read-out: PARP-1 Inhibition % (10 nM)): 42.8% | IC50 ([1]; read-out: PARP-1 IC50): 0.0122 µM | IC50 ([1]; supplement sheet, read-out: IC50 PAPR-1): 0.0122 µM | inhibition at 0.01 µM ([2]; supplement sheet, read-out: 10 nM inhibition% PAPR-2): 62.3% | inhibition at 0.01 µM ([2]; read-out: PARP-2 Inhibition % (10 nM)): 62.3% | IC50 ([2]; read-out: PARP-2 IC50): 0.0058 µM | IC50 ([2]; supplement sheet, read-out: IC50 PAPR-2): 0.00576 µM | inhibition at 0.00508 µM ([3]; replicate 1, read-out: Inh % 1): -5% | inhibition at 0.00508 µM ([3]; replicate 2, read-out: Inh % 2): -0.000277% | inhibition at 0.0152 µM ([3]; replicate 1, read-out: Inh % 1): -5.6% | inhibition at 0.0152 µM ([3]; replicate 2, read-out: Inh % 2): -6.4% | inhibition at 0.0457 µM ([3]; replicate 1, read-out: Inh % 1): -12.8% | inhibition at 0.0457 µM ([3]; replicate 2, read-out: Inh % 2): -9.3% | inhibition at 0.41 µM ([3]; replicate 1, read-out: Inh % 1): -7.7% | inhibition at 0.41 µM ([3]; replicate 2, read-out: Inh % 2): -9% | inhibition at 1.23 µM ([3]; replicate 1, read-out: Inh % 1): -9.6% | inhibition at 1.23 µM ([3]; replicate 2, read-out: Inh % 2): -10.8% | inhibition at 3.7 µM ([3]; replicate 1, read-out: Inh % 1): -9.3% | inhibition at 3.7 µM ([3]; replicate 2, read-out: Inh % 2): -9.7% | inhibition at 11.11 µM ([3]; replicate 1, read-out: Inh % 1): -6.6% | inhibition at 11.11 µM ([3]; replicate 2, read-out: Inh % 2): -8.1% | inhibition at 33.33 µM ([3]; replicate 1, read-out: Inh % 1): 62% | inhibition at 33.33 µM ([3]; replicate 2, read-out: Inh % 2): 38.7% | inhibition at 100 µM ([3]; replicate 1, read-out: Inh % 1): 99.6% | inhibition at 100 µM ([3]; replicate 2, read-out: Inh % 2): 99.3% | IC50 ([3]; MDA-MB-436, 72 h, CellTiter-Glo, read-out: MDA-MB-436 IC50): 31.9 µM | IC50 ([3]; MDA-MB-436, 72 h, supplement Summary sheet, read-out: IC50): 31.9 µM | IC50 ([3]; MDA-MB-436, curve fit list, no unit in the cell, concentration in uM, read-out: IC50): 31.9 µM | LogIC50 ([3]; MDA-MB-436, curve fit on Log (uM) concentrations): 1.504 | Bottom ([3]; MDA-MB-436, curve fit parameter (Inh %)): -8.27 | Top ([3]; MDA-MB-436, curve fit parameter (Inh %), '= 100.0' is a constrained value): 100 | LogIC50 ([4]; CAPAN-1, curve-fit output, Log (uM)): 1.317 | IC50 ([4]; CAPAN-1, 72 h, CellTiter-Glo, read-out: CAPAN-1 IC50): 20.7 µM | inhibition at 0.00508 µM ([4]; replicate 1, read-out: Inh % 1): -7.2% | inhibition at 0.00508 µM ([4]; replicate 2, read-out: Inh % 2): 1.2% | inhibition at 0.0152 µM ([4]; replicate 1, read-out: Inh % 1): 1.3% | inhibition at 0.0152 µM ([4]; replicate 2, read-out: Inh % 2): 4.1% | inhibition at 0.0457 µM ([4]; replicate 1, read-out: Inh % 1): 1.4% | inhibition at 0.0457 µM ([4]; replicate 2, read-out: Inh % 2): 9% | inhibition at […] ([4]; replicate 1, read-out: Inh % 1): 8.1% | inhibition at […] ([4]; replicate 2, read-out: Inh % 2): 7.4% | inhibition at 0.41 µM ([4]; replicate 1, read-out: Inh % 1): 22.4% | inhibition at 0.41 µM ([4]; replicate 2, read-out: Inh % 2): 6.9% | inhibition at 1.23 µM ([4]; replicate 1, read-out: Inh % 1): 18% | inhibition at 1.23 µM ([4]; replicate 2, read-out: Inh % 2): 5.8% | inhibition at 3.7 µM ([4]; replicate 1, read-out: Inh % 1): 5.7% | inhibition at 3.7 µM ([4]; replicate 2, read-out: Inh % 2): 1.6% | inhibition at 11.11 µM ([4]; replicate 1, read-out: Inh % 1): 14.5% | inhibition at 11.11 µM ([4]; replicate 2, read-out: Inh % 2): 8.2% | inhibition at 33.33 µM ([4]; replicate 1, read-out: Inh % 1): 93.8% | inhibition at 33.33 µM ([4]; replicate 2, read-out: Inh % 2): 86.5% | inhibition at 100 µM ([4]; replicate 1, read-out: Inh % 1): 100% | inhibition at 100 µM ([4]; replicate 2, read-out: Inh % 2): 99.5% | IC50 ([4]; CAPAN-1, 72 h, supplement Summary sheet, read-out: IC50): 20.7 µM | IC50 ([4]; CAPAN-1, curve-fit output, concentrations in uM, read-out: IC50): 20.7 µM
